PubChem BioAssay AID1745844 (Carcinogenic Potency Database (CPDB), 2022)
The source made the active and inactive calls. The rule behind the calls is not given here.

System: rodent lifetime carcinogenesis bioassay, tumor incidence TD50
Assay: chronic cancer bioassays in animals – CPDB, compiled studies (AID 1745844)

CN(N=O)c1cccnc1
inactive: carcinogen call (rat, strain BD VI, females, by gavage, site: any site (literature study), lesion: benign tumor, dosed 116 weeks, study length 116 weeks) negative | TD50 (rat, strain BD VI, females, by gavage, site: any site (literature study), lesion: malignant tumor, dosed 116 weeks, study length 116 weeks) 6.09 mg/kg/day | carcinogen call (rat, strain BD VI, females, by gavage, site: any site (literature study), lesion: several types, types named in the paper, dosed 116 weeks, study length 116 weeks) negative | carcinogen call (rat, strain BD VI, females, by gavage, site: liver, lesion: several types, types named in the paper, dosed 116 weeks, study length 116 weeks) negative

Nc1ccc(N=Nc2ccc(-c3ccc(N=Nc4c(S(=O)(=O)O)cc5cc(S(=O)(=O)O)c(N=Nc6ccccc6)c(O)c5c4N)cc3)cc2)c(N)c1
32 mg/kg/day: TD50 (mouse, strain ICR, both sexes, in drinking water, site: any site (literature study), lesion: several types, types named in the paper, dosed 57 weeks, study length 57 weeks)
2.22 mg/kg/day: TD50 (rat, strain Fischer 344, males, in feed, site: liver, lesion: hepatocellular carcinoma, dosed 13 weeks, study length 13 weeks)
2.61 mg/kg/day: TD50 (rat, strain Fischer 344, females, in feed, site: any site (literature study), lesion: several types, types named in the paper, dosed 13 weeks, study length 13 weeks) | TD50 (rat, strain Fischer 344, females, in feed, site: liver, lesion: hepatocellular adenoma + hepatocellular carcinoma + neoplastic nodule, dosed 13 weeks, study length 13 weeks)
0.945 mg/kg/day: TD50 (rat, strain Fischer 344, males, in feed, site: any site (literature study), lesion: several types, types named in the paper, dosed 13 weeks, study length 13 weeks) | TD50 (rat, strain Fischer 344, males, in feed, site: liver, lesion: hepatocellular adenoma + hepatocellular carcinoma + neoplastic nodule, dosed 13 weeks, study length 13 weeks)
active: TD50 (mouse, strain ICR, both sexes, in drinking water, site: liver, lesion: hepatoma, dosed 57 weeks, study length 57 weeks) 71.6 mg/kg/day | TD50 (mouse, strain ICR, both sexes, in drinking water, site: mammary gland, lesion: several types, types named in the paper, dosed 57 weeks, study length 57 weeks) 262 mg/kg/day | TD50 (rat, strain Fischer 344, females, in feed, site: liver, lesion: neoplastic nodule, dosed 13 weeks, study length 13 weeks) 2.61 mg/kg/day | TD50 (rat, strain Fischer 344, males, in feed, site: liver, lesion: hepatocellular carcinoma + neoplastic nodule, dosed 13 weeks, study length 13 weeks) 0.945 mg/kg/day

O=NN1CCCCCCC1
active: TD50 (rat, strain Fischer 344, males, in drinking water, site: esophagus, lesion: basal-cell carcinoma, dosed 50 weeks, study length 125 weeks) 0.159 mg/kg/day | TD50 (rat, strain Fischer 344, males, in drinking water, site: esophagus, lesion: several types, types named in the paper, dosed 25 weeks, study length 115 weeks) 0.118 mg/kg/day | TD50 (rat, strain Fischer 344, males, in drinking water, site: esophagus, lesion: several types, types named in the paper, dosed 100 weeks, study length 115 weeks) 0.0735 mg/kg/day | carcinogen call (rat, strain Fischer 344, males, in drinking water, site: liver, lesion: hepatocellular carcinoma, dosed 50 weeks, study length 125 weeks) positive | TD50 (rat, strain Fischer 344, males, in drinking water, site: liver, lesion: several types, types named in the paper, dosed 100 weeks, study length 115 weeks) 0.198 mg/kg/day | TD50 (rat, strain Fischer 344, males, in drinking water, site: tongue, lesion: basal-cell carcinoma, dosed 50 weeks, study length 125 weeks) 0.171 mg/kg/day | TD50 (rat, strain Fischer 344, males, in drinking water, site: tongue, lesion: basal-cell carcinoma, dosed 100 weeks, study length 115 weeks) 0.105 mg/kg/day | TD50 (rat, strain Fischer 344, males, in drinking water, site: upper gastrointestinal tract, lesion: carcinoma, dosed 25 weeks, study length 115 weeks) 0.0363 mg/kg/day | TD50 (rat, strain Fischer 344, males, in drinking water, site: upper gastrointestinal tract, lesion: several types, types named in the paper, dosed 25 weeks, study length 115 weeks) 0.0512 mg/kg/day | TD50 (rat, strain Fischer 344, males, in drinking water, site: upper gastrointestinal tract, lesion: several types, types named in the paper, dosed 50 weeks, study length 125 weeks) 0.0571 mg/kg/day | TD50 (rat, strain Fischer 344, males, in drinking water, site: upper gastrointestinal tract, lesion: several types, types named in the paper, dosed 100 weeks, study length 115 weeks) 0.0292 mg/kg/day

CC(CN1c2ccccc2Sc2ccccc21)N(C)C (stereo not drawn)
157 mg/kg/day: TD50 (mouse, strain B6C3F1, males, by gavage, site: liver, lesion: hepatocellular adenoma + hepatoblastoma + hepatocellular carcinoma, dosed 103 weeks, study length 104 weeks)
inactive: carcinogen call (mouse, strain B6C3F1, females, by gavage, site: any site (literature study), lesion: several types, types named in the paper, dosed 104 weeks, study length 105 weeks) negative | TD50 (mouse, strain B6C3F1, males, by gavage, site: any site (literature study), lesion: several types, types named in the paper, dosed 103 weeks, study length 104 weeks) 393 mg/kg/day | carcinogen call (rat, strain Fischer 344, females, by gavage, site: any site (literature study), lesion: several types, types named in the paper, dosed 103 weeks, study length 104 weeks) negative | TD50 (rat, strain Fischer 344, males, by gavage, site: testis, lesion: interstitial-cell adenoma, bilateral + interstitial-cell adenoma, dosed 102 weeks, study length 102 weeks) 10.3 mg/kg/day
418 mg/kg/day: TD50 (rat, strain Fischer 344, females, by gavage, site: liver, lesion: hepatocellular adenoma + hepatoblastoma + hepatocellular carcinoma, dosed 103 weeks, study length 104 weeks)
47.8 mg/kg/day: TD50 (mouse, strain B6C3F1, females, by gavage, site: liver, lesion: hepatocellular adenoma + hepatoblastoma + hepatocellular carcinoma, dosed 104 weeks, study length 105 weeks)
24.6 mg/kg/day: TD50 (rat, strain Fischer 344, males, by gavage, site: any site (literature study), lesion: several types, types named in the paper, dosed 102 weeks, study length 102 weeks)

C1C2OC2C2C1C1CC2C2OC12 (stereo not drawn)
inactive: TD50 (mouse, strain CD-1 HaM/ICR, females, in feed, site: any site (literature study), lesion: several types, types named in the paper, dosed 64 weeks, study length 86 weeks) 789 mg/kg/day | carcinogen call (mouse, strain CD-1 HaM/ICR, females, in feed, site: liver, lesion: several types, types named in the paper, dosed 64 weeks, study length 86 weeks) negative | TD50 (mouse, strain CD-1 HaM/ICR, females, in feed, site: lung, lesion: several types, types named in the paper, dosed 64 weeks, study length 86 weeks) 1660 mg/kg/day | TD50 (mouse, strain CD-1 HaM/ICR, males, in feed, site: any site (literature study), lesion: several types, types named in the paper, dosed 77 weeks, study length 86 weeks) 149 mg/kg/day | TD50 (mouse, strain CD-1 HaM/ICR, males, in feed, site: liver, lesion: several types, types named in the paper, dosed 77 weeks, study length 86 weeks) 930 mg/kg/day | TD50 (mouse, strain CD-1 HaM/ICR, males, in feed, site: lung, lesion: several types, types named in the paper, dosed 77 weeks, study length 86 weeks) 373 mg/kg/day | TD50 (rat, strain Charles River CD (Sprague-Dawley), males, in feed, site: any site (literature study), lesion: several types, types named in the paper, dosed 77 weeks, study length 107 weeks) 176 mg/kg/day | TD50 (rat, strain Charles River CD (Sprague-Dawley), males, in feed, site: liver, lesion: several types, types named in the paper, dosed 77 weeks, study length 107 weeks) 3910 mg/kg/day

CN(C)C(=O)NC1CC2CC1C1CCCC21 (stereo not drawn)
inactive: carcinogen call (mouse, strain B6AKF1, females, oral dosing, site: any site (literature study), lesion: several types, types named in the paper, dosed 76 weeks, study length 76 weeks) negative | carcinogen call (mouse, strain B6AKF1, females, oral dosing, site: liver, lesion: hepatoma, dosed 76 weeks, study length 76 weeks) negative | carcinogen call (mouse, strain B6AKF1, females, oral dosing, site: lung, lesion: adenoma, dosed 76 weeks, study length 76 weeks) negative | carcinogen call (mouse, strain B6AKF1, males, oral dosing, site: any site (literature study), lesion: several types, types named in the paper, dosed 76 weeks, study length 76 weeks) negative | carcinogen call (mouse, strain B6AKF1, males, oral dosing, site: liver, lesion: hepatoma, dosed 76 weeks, study length 76 weeks) negative | carcinogen call (mouse, strain B6AKF1, males, oral dosing, site: lung, lesion: adenoma, dosed 76 weeks, study length 76 weeks) negative | TD50 (mouse, strain B6C3F1, females, oral dosing, site: any site (literature study), lesion: several types, types named in the paper, dosed 76 weeks, study length 76 weeks) 1230 mg/kg/day | carcinogen call (mouse, strain B6C3F1, females, oral dosing, site: liver, lesion: hepatoma, dosed 76 weeks, study length 76 weeks) negative | TD50 (mouse, strain B6C3F1, females, oral dosing, site: lung, lesion: adenoma, dosed 76 weeks, study length 76 weeks) 1230 mg/kg/day | TD50 (mouse, strain B6C3F1, males, oral dosing, site: any site (literature study), lesion: several types, types named in the paper, dosed 76 weeks, study length 76 weeks) 259 mg/kg/day | TD50 (mouse, strain B6C3F1, males, oral dosing, site: liver, lesion: hepatoma, dosed 76 weeks, study length 76 weeks) 359 mg/kg/day | carcinogen call (mouse, strain B6C3F1, males, oral dosing, site: lung, lesion: several types, types named in the paper, dosed 76 weeks, study length 76 weeks) negative
